“And” between values parts separate entries of the source, which are not always exact repeats. Equal entries are not always repeated.
Assays:
C6 cells = conditions: cited from earlier work
[1] = Observation of overall health status, general behavior and grooming; type: in vivo, rat; conditions: any of the bpV(phen)- and PBS-treated groups
Experimental: Whether bpV(phen) might have detrimental side effects, such as inducing pain at the level of the injury, was tested. Severe spinal cord injury can induce hypersensitivity and mechanical allodynia (a painful response to a nonpainful tactile skin stimulus) at the level of injury. […] Differences between any of the bpV(phen)- and PBS-treated groups in the overall health status, general behavior, and grooming of the rats were not observed.

[2] = system: T9 contusive spinal cord injury; test: T9 spinal cord contusion, intrathecal infusion: CTB tracing, white matter (EC) and C3 axon histology; type: in vivo, rat; conditions: for CTB-traced fiber area in the gracile nucleus: PBS 43+/−17
rat cardiomyocytes = conditions: cited from earlier work
[3] = 100 μM, 7 d L5/6 infusion started immediately after 0.3 mm contusion

For `O.O.O.OO.OO.[K+].[OH-].[V].c1cnc2c(c1)ccc1cccnc12` [bpV(phen), potassium bisperoxo(1,10-phenanthroline)oxovanadate (V)], the “oxidative damage to DNA” value (C6 cells) is listed as “does not cause oxidative damage to DNA”, the “differences versus PBS groups in overall health status, general behavior and grooming” value [1] is listed as “not observed” and the “CTB-traced fiber area in the gracile nucleus” value (“CTB-traced fiber area” below) ([2]; 30 μM, 7 d L5/6 infusion started immediately after 0.3 mm contusion) is listed as 60+/−5%. For the same compound, the “CTB-labeled terminal fiber area in the gracile nucleus” value ([2]; 30 μM, 7 d intrathecal infusion at T9 started immediately after 0.3 mm contusion, PBS 17+/−7%) was 47+/−6 % of sham, the “area of spared white matter in the dorsal column at injury epicenter” value ([2]; 30 μM, 7 d intrathecal infusion at T9 started immediately after 0.3 mm contusion, PBS 28+/−6%) was 50+/−8 % of sham and the “spared dorsal column white matter at the epicenter” value ([2]; 100 μM, 7 d L5/6 infusion started 4 h after 0.3 mm contusion, PBS 37+/−6%) was 78+/−7%. For the same compound, the “gracile nucleus innervation (CTB)” value ([2]; 100 μM, 7 d L5/6 infusion started 4 h after 0.3 mm contusion, PBS 66+/−11%) was 100+/−7%, the total white matter ([2]; 100 μM, 7 d L5/6 infusion started 4 h after 0.3 mm contusion, PBS 70+/−5%) was 103+/−4% and the “area of spared dorsal column white matter at the injury epicenter” value [2, 3] was 58+/−12%. The “CTB-traced fiber area” value [2, 3] was 93+/−11%, the “total white matter at the epicenter” value ([2]; 100 μM, 7 d L5/6 infusion started immediately after 0.3 mm contusion, PBS 68+/−6%) was 90+/−12% and the “CTB-labeled innervation of the gracile nucleus” value ([2]; 100 μM, 28 d L5/6 infusion started 4 h after contusion, 42 d after injury, 14 d after end of infusion, PBS 68+/−11%) was 106+/−9 % of sham. The “area of spared white matter in the dorsal column at the T9 injury epicenter” value ([2]; 100 μM, 28 d L5/6 infusion started 4 h after contusion, 42 d after injury, PBS 48+/−8%) was 79+/−7% and 80%, the “number of myelinated axons in fasciculus gracilis at C3” value ([2]; 100 μM, 28 d L5/6 infusion started 4 h after contusion, 42 d after injury, PBS 63+/−6%) was 102+/−5% and the “CTB-traced fiber area” value ([2]; 300 μM, 7 d L5/6 infusion started immediately after 0.3 mm contusion) was 80+/−14%. The glutathione concentration (rat cardiomyocytes) was “does not change”.
